What was measured:
Cbl-b = biological target: T1, Cbl-b (Homo sapiens, UniProt Q13191); assay: Cbl-b probe displacement HTRF binding assay; details: 0.4 nM biotinylated Cbl-b, 150 nM BODIPY probe
T1 construct: biotin (biotinylated)
How it was run: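 Biotinylated Cbl-b (0.4 nM) preincubated 60 min at RT with compound (20-point 1:2 series, 10 μM top), then 150 nM BODIPY probe for 15 min, then streptavidin-terbium detection. Buffer: 20 mM Hepes, 150 mM NaCl, 0.01% Triton X-100, 0.5 mM TCEP, 0.01% BSA. Loss of HTRF signal gave IC50 via four-parameter fit.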

Jurkat cells = assay: IL-2 secretion assay in CD3/CD28-activated Jurkat cells (AlphaLISA); assay type: cell-based, human; details: Homo sapiens, CD3/CD28 T Cell Activator, 24 h, IL-2 AlphaLISA
How it was run: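 Jurkat cells (50,000/well) preincubated 1 h at 37° C with compound (16-point 1:2 series, final 10 μM to 300 pM) in Opti-MEM, then stimulated with CD3/CD28 activator for 24 h. Supernatant IL-2 read by AlphaLISA; EC50 from 4-parameter logistic fit.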

T1 sequence (Q13191 whole entry, species assumed): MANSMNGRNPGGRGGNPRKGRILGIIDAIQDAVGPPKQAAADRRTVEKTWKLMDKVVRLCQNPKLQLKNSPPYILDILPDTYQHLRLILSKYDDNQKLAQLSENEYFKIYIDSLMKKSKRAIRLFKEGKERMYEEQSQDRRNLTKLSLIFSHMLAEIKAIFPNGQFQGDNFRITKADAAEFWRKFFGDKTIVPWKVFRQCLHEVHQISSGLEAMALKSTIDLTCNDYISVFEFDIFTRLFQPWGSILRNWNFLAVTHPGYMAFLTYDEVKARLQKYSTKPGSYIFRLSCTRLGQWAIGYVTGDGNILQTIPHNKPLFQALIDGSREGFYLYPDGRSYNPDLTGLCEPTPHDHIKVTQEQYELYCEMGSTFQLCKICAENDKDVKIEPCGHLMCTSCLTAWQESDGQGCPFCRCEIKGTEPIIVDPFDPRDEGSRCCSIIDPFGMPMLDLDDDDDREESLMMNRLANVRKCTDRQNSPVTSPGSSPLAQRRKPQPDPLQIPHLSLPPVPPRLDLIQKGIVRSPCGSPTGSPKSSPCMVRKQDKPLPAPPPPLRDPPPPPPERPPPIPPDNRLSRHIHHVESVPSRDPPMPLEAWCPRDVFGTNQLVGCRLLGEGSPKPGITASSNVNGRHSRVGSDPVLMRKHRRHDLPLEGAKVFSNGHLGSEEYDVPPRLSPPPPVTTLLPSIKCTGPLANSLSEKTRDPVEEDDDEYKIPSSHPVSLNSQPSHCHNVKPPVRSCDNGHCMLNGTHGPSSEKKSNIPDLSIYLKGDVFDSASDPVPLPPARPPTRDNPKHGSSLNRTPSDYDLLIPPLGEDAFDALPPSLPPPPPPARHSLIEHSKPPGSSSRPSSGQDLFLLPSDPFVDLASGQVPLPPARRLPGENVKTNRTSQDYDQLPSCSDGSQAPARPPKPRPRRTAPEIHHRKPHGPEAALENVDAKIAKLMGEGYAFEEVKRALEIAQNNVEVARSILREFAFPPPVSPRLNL

Row | Structure (SMILES) | IC50 (Cbl-b) | EC50 (Jurkat cells)
1 | C[C@H]1CCCN(Cc2nc3c(C(F)(F)F)cn(-c4cc(-c5ccc(F)cc5-c5nncn5C)cc(C5CC5)n4)c(=O)c3[nH]2)C1 [Example 50, 5-[6-cyclopropyl-4-[4-fluoro-2-(4-methyl-1,2,4-triazol-3-yl)phenyl]pyridin-2-yl]-2-[[(3S)-3-methylpiperidin-1-yl]methyl]-7-(trifluoromethyl)-3H-imidazo[4,5-c]pyridin-4-one] | < 100 nM | < 100 nM
2 | C[C@H]1CCCN(Cc2nc3c(C4CC4)cn(-c4cc(-c5ccc(F)cc5-c5nccn5C)cc(C5CC5)n4)c(=O)c3[nH]2)C1 [Example 51, 7-cyclopropyl-5-[6-cyclopropyl-4-[4-fluoro-2-(1-methylimidazol-2-yl)phenyl]pyridin-2-yl]-2-[[(3S)-3-methylpiperidin-1-yl]methyl]-3H-imidazo[4,5-c]pyridin-4-one] | < 100 nM | < 100 nM
3 | C[C@H]1CCCN(Cc2cc3c(C4CC4)cn(-c4cc(-c5ccc(F)cc5-c5nccn5C)cc(C5CC5)n4)c(=O)c3[nH]2)C1 [Example 52, 2-{[(S)-3-methyl-1-piperidyl]methyl}-4-cyclopropyl-6-{6-cyclopropyl-4-[4-fluoro-2-(1-methyl-2-imidazolyl)phenyl]-2-pyridyl}-1,6-dihydro-1,6-diaza-7-indenone] | < 100 nM | < 100 nM
4 | Cn1ccnc1-c1cc(F)ccc1-c1cc(C2CC2)nc(-n2cc(C3CC3)c3cc(CNC4(CO)CCC4)[nH]c3c2=O)c1 [Example 53, 4-cyclopropyl-6-{6-cyclopropyl-4-[4-fluoro-2-(1-methyl-2-imidazolyl)phenyl]-2-pyridyl}-2-{[1-(hydroxymethyl)cyclobutylamino]methyl}-1,6-dihydro-1,6-diaza-7-indenone] | < 100 nM | < 100 nM
5 | C[C@@H]1CN(Cc2cc3c(C4CC4)cn(-c4cc(-c5ccc(F)cc5-c5nccn5C)cc(C5CC5)n4)c(=O)c3[nH]2)CCO1 [Example 54, 2-{[(R)-2-methyl-4-morpholinyl]methyl}-4-cyclopropyl-6-{6-cyclopropyl-4-[4-fluoro-2-(1-methyl-2-imidazolyl)phenyl]-2-pyridyl}-1,6-dihydro-1,6-diaza-7-indenone] | < 100 nM | < 100 nM
6 | Cn1ccnc1-c1cc(F)ccc1-c1cc(C2CC2)nc(-n2cc(C3CC3)c3cc(CNC4(C)CCC4)[nH]c3c2=O)c1 [Example 55, 4-cyclopropyl-6-{6-cyclopropyl-4-[4-fluoro-2-(1-methyl-2-imidazolyl)phenyl]-2-pyridyl}-2-[(1-methylcyclobutylamino)methyl]-1,6-dihydro-1,6-diaza-7-indenone] | < 100 nM | < 100 nM
7 | Cn1ccnc1-c1cc(F)ccc1-c1cc(C2CC2)nc(-n2cc(C3CC3)c3cc(CN4C[C@@H]5CC[C@H]4C5)[nH]c3c2=O)c1 [Example 56, 2-({(1S,4R)-2-azabicyclo[2.2.1]hept-2-yl}methyl)-4-cyclopropyl-6-{6-cyclopropyl-4-[4-fluoro-2-(1-methyl-2-imidazolyl)phenyl]-2-pyridyl}-1,6-dihydro-1,6-diaza-7-indenone] | < 100 nM | 100 to 1000 nM
8 | Cn1ccnc1-c1cc(F)ccc1-c1cc(C2CC2)nc(-n2cc(C3CC3)c3cc(CN[C@@H]4CCCOC4)[nH]c3c2=O)c1 [Example 57, 2-{[(R)-tetrahydro-2H-pyran-3-ylamino]methyl}-4-cyclopropyl-6-{6-cyclopropyl-4-[4-fluoro-2-(1-methyl-2-imidazolyl)phenyl]-2-pyridyl}-1,6-dihydro-1,6-diaza-7-indenone] | < 100 nM | < 100 nM
9 | Cn1ccnc1-c1cc(F)ccc1-c1cc(C2CC2)nc(-n2cc(C3CC3)c3cc(CN4CCC[C@H](O)C4)[nH]c3c2=O)c1 [Example 58, 2-{[(S)-3-hydroxy-1-piperidyl]methyl}-4-cyclopropyl-6-{6-cyclopropyl-4-[4-fluoro-2-(1-methyl-2-imidazolyl)phenyl]-2-pyridyl}-1,6-dihydro-1,6-diaza-7-indenone] | < 100 nM | < 100 nM
10 | Cn1ccnc1-c1cc(F)ccc1-c1cc(C2CC2)nc(-n2cc(C3CC3)c3cc(CN[C@H]4CCOC4)[nH]c3c2=O)c1 [Example 59, 2-{[(S)-tetrahydro-3-furylamino]methyl}-4-cyclopropyl-6-{6-cyclopropyl-4-[4-fluoro-2-(1-methyl-2-imidazolyl)phenyl]-2-pyridyl}-1,6-dihydro-1,6-diaza-7-indenone] | < 100 nM | < 100 nM
11 | Cn1ccnc1-c1cc(F)ccc1-c1cc(C2CC2)nc(-n2cc(C3CC3)c3cc(CN4C[C@H]5C[C@@H]4CO5)[nH]c3c2=O)c1 [Example 60, 2-({(1R,4R)-2-oxa-5-azabicyclo[2.2.1]hept-5-yl}methyl)-4-cyclopropyl-6-{6-cyclopropyl-4-[4-fluoro-2-(1-methyl-2-imidazolyl)phenyl]-2-pyridyl}-1,6-dihydro-1,6-diaza-7-indenone] | < 100 nM | 100 to 1000 nM
12 | CO[C@H]1CCCN(Cc2cc3c(C4CC4)cn(-c4cc(-c5ccc(F)cc5-c5nccn5C)cc(C5CC5)n4)c(=O)c3[nH]2)C1 [Example 61, 2-{[(S)-3-methoxy-1-piperidyl]methyl}-4-cyclopropyl-6-{6-cyclopropyl-4-[4-fluoro-2-(1-methyl-2-imidazolyl)phenyl]-2-pyridyl}-1,6-dihydro-1,6-diaza-7-indenone] | < 100 nM | 100 to 1000 nM
13 | Cn1ccnc1-c1cc(F)ccc1-c1cc(C2CC2)nc(-n2cc(C3CC3)c3cc(CNC(C)(C)C)[nH]c3c2=O)c1 [Example 62, 2-[(tert-butylamino)methyl]-4-cyclopropyl-6-{6-cyclopropyl-4-[4-fluoro-2-(1-methyl-2-imidazolyl)phenyl]-2-pyridyl}-1,6-dihydro-1,6-diaza-7-indenone] | < 100 nM | < 100 nM
14 | C[C@@H]1CN(Cc2cc3c(C4CC4)cn(-c4cc(-c5ccc(F)cc5-c5nccn5C)cc(C#N)n4)c(=O)c3[nH]2)CCO1 [Example 63, 6-(2-{[(R)-2-methyl-4-morpholinyl]methyl}-4-cyclopropyl-7-oxo-1,6-dihydro-1,6-diaza-6-indenyl)-4-[4-fluoro-2-(1-methyl-2-imidazolyl)phenyl]-2-pyridinecarbonitrile] | < 100 nM | 100 to 1000 nM
15 | CCn1ccnc1-c1cc(F)ccc1-c1cc(C2CC2)nc(-n2cc(C3CC3)c3cc(CN4CCO[C@H](C)C4)[nH]c3c2=O)c1 [Example 64, 2-{[(R)-2-methyl-4-morpholinyl]methyl}-4-cyclopropyl-6-{6-cyclopropyl-4-[2-(1-ethyl-2-imidazolyl)-4-fluorophenyl]-2-pyridyl}-1,6-dihydro-1,6-diaza-7-indenone] | < 100 nM | 100 to 1000 nM
16 | C[C@@H]1CN(Cc2cc3c(C4CC4)cn(-c4cc(-c5c(F)cc(F)cc5-c5nccn5C)cc(C5CC5)n4)c(=O)c3[nH]2)CCO1 [Example 65, 2-{[(R)-2-methyl-4-morpholinyl]methyl}-4-cyclopropyl-6-{6-cyclopropyl-4-[4,6-difluoro-2-(1-methyl-2-imidazolyl)phenyl]-2-pyridyl}-1,6-dihydro-1,6-diaza-7-indenone] | < 100 nM | < 100 nM
17 | C[C@@H]1CN(Cc2cc3c(C4CC4)cn(-c4cc(-c5cc(F)c(F)cc5-c5nccn5C)cc(C5CC5)n4)c(=O)c3[nH]2)CCO1 [Example 66, 2-{[(R)-2-methyl-4-morpholinyl]methyl}-4-cyclopropyl-6-{6-cyclopropyl-4-[4,5-difluoro-2-(1-methyl-2-imidazolyl)phenyl]-2-pyridyl}-1,6-dihydro-1,6-diaza-7-indenone] | < 100 nM | 100 to 1000 nM
18 | Cn1cc(C(F)(F)F)nc1-c1cc(C#N)ccc1-c1cc(C2CC2)nc(-n2cc(C3CC3)c3cc(CNC4(C)CCC4)[nH]c3c2=O)c1 [Example 67, 4-(6-cyclopropyl-2-{4-cyclopropyl-2-[(1-methylcyclobutylamino)methyl]-7-oxo-1,6-dihydro-1,6-diaza-6-indenyl}-4-pyridyl)-3-[1-methyl-4-(trifluoromethyl)-2-imidazolyl]benzonitrile] | < 100 nM | 100 to 1000 nM
19 | CC1(NCc2cc3c(C4CC4)cn(-c4cc(-c5ccc(C#N)cc5-c5nncn5C(F)F)cc(C5CC5)n4)c(=O)c3[nH]2)CCC1 [Example 68, 4-(6-cyclopropyl-2-{4-cyclopropyl-2-[(1-methylcyclobutylamino)methyl]-7-oxo-1,6-dihydro-1,6-diaza-6-indenyl}-4-pyridyl)-3-[4-(difluoromethyl)-4H-1,2,4-triazol-3-yl]benzonitrile] | < 100 nM | < 100 nM
20 | C[C@H]1CCCN(Cc2cc3c(C4CC4)cn(-c4cc(-c5ccc(C#N)cc5-c5nncn5C(F)F)cc(C5CC5)n4)c(=O)c3[nH]2)C1 [Example 69, 4-[2-(2-{[(S)-3-methyl-1-piperidyl]methyl}-4-cyclopropyl-7-oxo-1,6-dihydro-1,6-diaza-6-indenyl)-6-cyclopropyl-4-pyridyl]-3-[4-(difluoromethyl)-4H-1,2,4-triazol-3-yl]benzonitrile] | < 100 nM | < 100 nM
21 | O=c1c2[nH]c(CN[C@H]3CCC[C@H]3O)cc2c(C2CC2)cn1-c1cc(F)cc(-c2ccc(F)cc2-c2nncn2C(F)F)c1 [Example 70, 2-{[(1S,2R)-2-hydroxycyclopentylamino]methyl}-4-cyclopropyl-6-{2′-[4-(difluoromethyl)-4H-1,2,4-triazol-3-yl]-4′,5-difluoro-3-biphenylyl}-1,6-dihydro-1,6-diaza-7-indenone] | < 100 nM | < 100 nM

From patent US20250011318A1 (ARCUS BIOSCIENCES, INC., priority 2023, published 2025)
